Test results taken from patent publication US7094754B2, “Anti-aging and wound healing compounds” (Kimberly-Clark Worldwide, Inc., priority 2001, dated 2006).

Legend:
[1] = system: normal human dermal fibroblasts (Clonetics, CC-2509); experiment: Fibroblast proliferation assay; type: cell-based; settings: 28 hours
Method: A human skin fibroblast cell line (Clonetics, Walkersville, Md., normal human dermal fibroblasts, neonatal, catalog number CC-2509) was tested to ascertain whether exposure to a peptide of the invention would stimulate cellular proliferation. The proliferative response of the human skin fibroblast cell line to thel 9mer peptide (SEQ ID NO:11) was measured in a 96-well assay system using serum-free medium as a control. […] Plates were incubated for 24 hours at 37° C. in a humidified 5% CO2 atmosphere. After incubation, the medium was aspirated and the wells were rinsed twice with 100 μl of serum-free DMEM. […] In addition, 100 μl of vehicle (serum-free DMEM) was added to 10 wells as control. All wells were incubated for 28 hours at 37° C. in a humidified, 5% CO2 atmosphere. After incubation, 20 μl of Cell Titer 96 Aqueous One Solution was added to all wells. The plates were swirled gently and placed back in the incubator for 45 minutes and spectrophotometric absorbance was read at 490 nm. Results were analyzed statistically using one-way ANOVA.

[2] = system: neutrophils isolated from human blood; experiment: Neutrophil migration assay (transwell); type: cell-based; settings: HSA 0.4%
Method: Peptides were synthesized and purified by the Microchemical Facility at Emory University or by SigmaGenesis. All peptides were analyzed by mass spectrometry after HPLC to assess purity. Approximately 0.5–2.0 milligrams of peptide were used to make fresh stock solutions (5 mg/mL in HBSS/HSA) for each migration assay. The peptide stock solutions were used to make more dilute solutions (1 mg/mL, 100 μg/mL, 10 μg/mL, 1 μg/mL, 100 ng/mL, and 10 ng/mL) in HBSS/HSA for the assays.
Neutrophils were isolated from human blood (collected in Vacutainerm tubes containing EDTA) by layering the blood/EDTA mixture (about 20 mL) on top of two layers of Histopaque™ 1119 (bottom layer, 18 mL) and 1077 (top layer, 7 mL) in 50 mL Falcon tubes. The tubes were centrifuged at 1800 rpm for 30 minutes (no brake). Four layers appeared in the tubes after the spin (from top to bottom layers): plasma, 1077, 1119, and red blood cells. The buffy coat between the plasma and 1077 layers contained lymphocytes, monocytes, and some platelets. The plasma layer, the buffy coat, and most of the 1077 layer was removed and discarded. The 1119 layer that contained the neutrophils was removed and was placed into a clean 50 mL tube. Dulbecco's Phosphate Buffered Saline (DPBS) was added to bring the volume to 50 mL. The cells were centrifuged for 15 minutes at 2100 rpm. The cells were resuspended in 10 mL of DPBS, transferred to 15 mL tubes, and centrifuged again for 10 minutes at 2000 rpm. This process was repeated to wash the cells a second time. After the supernatant was removed, the red blood cells were lysed by adding 6 mL of cold sterile water to each 15 mL of supernatant. Cells were mixed in the water for only 30 seconds. Six mL of cold 2% sterile saline was then added. Cells were centrifuged again for 10 minutes at 2000 rpm. The red supernatant (containing hemoglobin from red blood cells) was removed. This process of red blood cell lysis was repeated two more times to remove all of the red blood cells. After most of the red blood cells were removed, neutrophils were resuspended in 10 mL of HBSS/HSA for counting with trypan blue.
A neutrophil migration assay was performed in duplicate using a 24-well transwell plate (3 μm pore size for membrane). Transwell membranes were pre-moistened with 20–40 μL of HBSS/HSA (0.04–0.4%). Chemotactic solutions (500 μL) were added to the bottom of each well. […] Transwells were then placed into the chemotactic solutions. The plate was placed into the incubator (37° C., 5% CO2) for one hour. Cells that migrated through the membrane were counted using trypan blue.
In the neutrophil migration experiments, neutrophils that were isolated were approximately 95% viable. Neutrophils were resuspended in HBSS/0.4%HSA for this experiment. IL-8 (10 nM in the HBSS/0.4%HSA buffer) was used as a positive control for neutrophil migration.

CC(C)[C@H](NC(=O)[C@H](CC(=O)O)NC(=O)[C@@H]1CCCN1C(=O)[C@H](CC(N)=O)NC(=O)CNC(=O)[C@H](CS)NC(=O)[C@H](CCCNC(=N)N)NC(=O)[C@@H]1CCCN1)C(=O)N[C@@H](C)C(=O)N[C@@H](CC(N)=O)C(=O)N[C@@H](Cc1ccc(O)cc1)C(=O)N[C@@H](CC(N)=O)C(=O)N[C@@H](Cc1ccccc1)C(=O)N[C@@H](Cc1ccccc1)C(=O)N1CCC[C@H]1C(=O)N[C@@H](CCCNC(=N)N)C(=O)N[C@@H](CCCCN)C(=O)N1CCC[C@H]1C(=O)N[C@@H](CCCCN)C(=O)O [19-mer]
fibroblast growth (OD 490 nm) versus control ([1]; 1×10^−4 M): even greater cell growth | fibroblast growth (OD 490 nm) versus control ([1]; 1×10^−5 M): significantly greater cell density | fibroblast growth (OD 490 nm) versus control ([1]; 1×10^−6 M): a small amount of cell proliferation | Percent Neutrophil Migration exp.1 ([2]; 1 μg/mL): 32% | Percent Neutrophil Migration exp.1 ([2]; 10 μg/mL): 22% | Percent Neutrophil Migration exp.1 ([2]; 100 μg/mL): 29% | Percent Neutrophil Migration exp.1 ([2]; 1 mg/mL, one hour): 23%
